{
  "source": "patent US9850225B2",
  "about": "“Compounds useful as immunomodulators” (BRISTOL-MYERS SQUIBB COMPANY, priority 2014, dated 2017)",
  "target": "PD-1/PD-L1 interaction (PD-1-Ig / PD-L1-His) (Homo sapiens (Human), UniProt Q9NZQ7)",
  "sequence (Q9NZQ7 other isoform, or with tags, fused parts or gaps)": "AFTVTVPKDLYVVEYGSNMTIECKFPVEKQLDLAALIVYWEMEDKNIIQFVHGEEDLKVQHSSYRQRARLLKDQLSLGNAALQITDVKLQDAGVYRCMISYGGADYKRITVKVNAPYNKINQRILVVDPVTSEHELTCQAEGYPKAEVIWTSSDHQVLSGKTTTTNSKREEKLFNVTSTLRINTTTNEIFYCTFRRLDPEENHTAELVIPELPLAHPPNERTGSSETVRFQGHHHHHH",
  "experiment": "PD-1/PD-L1 Homogenous Time-Resolved Fluorescence (HTRF) binding assay",
  "details": "PD-1/PD-L1 HTRF binding assay, read-out: Range or IC50",
  "method_in_brief": "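Human PD-L1-His (10 nM final) was pre-incubated with inhibitor for 15 min, then PD-1-Ig (20 nM final) was added for a further 15 min in dPBS with 0.1% BSA and 0.05% Tween-20. Binding was detected by HTRF using Eu-cryptate anti-Ig (1 nM) and APC anti-His (20 nM).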",
  "note": "Where two headings read alike, the source gives them in different places.",
  "data": [
    {"compound": "CC(=O)NCCNCc1ccc(OCc2cccc(-c3ccccc3)c2C)cc1OCc1cc(C)ccc1F", "note": "[Example 1094, N-(2-((2-((2-fluoro-5-methylbenzyl)oxy)-4-((2-methyl-[1,1′-biphenyl]-3-yl)methoxy)benzyl)amino)ethyl)acetamide]", "values": [
      {"measurement": "IC50", "setting": "value given as range class", "value": "100 to 20000", "unit": "nM"}
    ]},
    {"compound": "CC(=O)NCCNCc1ccc(OCc2cccc(-c3ccccc3)c2C)cc1OCc1ccc(F)c(C#N)c1", "note": "[Example 1114, N-(2-((2-((3-cyano-4-fluorobenzyl)oxy)-4-((2-methyl-[1,1′-biphenyl]-3-yl)methoxy)benzyl)amino)ethyl)acetamide]", "values": [
      {"measurement": "IC50", "setting": "value given as range class", "value": "10 to 100", "unit": "nM"}
    ]},
    {"compound": "CC(=O)NCCNCc1ccc(OCc2cccc(-c3ccccc3)c2C)cc1OCc1ccncn1", "note": "[Example 1100, N-(2-((4-((2-methyl-[1,1′-biphenyl]-3-yl)methoxy)-2-(pyrimidin-4-ylmethoxy)benzyl)amino)ethyl)acetamide]", "values": [
      {"measurement": "IC50", "setting": "value given as range class", "value": "100 to 20000", "unit": "nM"}
    ]},
    {"compound": "Cc1c(COc2cc(OCc3cncc(C#N)c3)c(CN3CCCC[C@H]3C(=O)NS(=O)(=O)N3CCN(C)CC3)cc2Cl)cccc1-c1ccc2c(c1)OCCO2", "note": "[Example 1262, (S)-1-(5-chloro-2-((5-cyanopyridin-3-yl)methoxy)-4-((3-(2,3-dihydrobenzo[b][1,4]dioxin-6-yl)-2-methylbenzyl)oxy)benzyl)-N-((4-methylpiperazin-1-yl)sulfonyl)piperidine-2-carboxamide]", "values": [
      {"measurement": "IC50", "setting": "value given as range class", "value": "10 to 100", "unit": "nM"}
    ]},
    {"compound": "CC(=O)NCCNCc1ccc(OCc2cccc(-c3ccccc3)c2C)cc1OCc1cccc(C)c1", "note": "[Example 1025, N-(2-((4-((2-methyl-[1,1′-biphenyl]-3-yl)methoxy)-2-((3-methylbenzyl)oxy)benzyl)amino)ethyl)acetamide]", "values": [
      {"measurement": "IC50", "setting": "value given as range class", "value": "100 to 20000", "unit": "nM"}
    ]},
    {"compound": "Cc1c(COc2ccc(CN3CCCC[C@H]3C(=O)O)c(OCc3cncc(C#N)c3)c2)cccc1-c1ccccc1", "note": "[Example 1329, (S)-1-(2-((5-cyanopyridin-3-yl)methoxy)-4-((2-methyl-[1,1′-biphenyl]-3-yl)methoxy)benzyl)piperidine-2-carboxylic acid]", "values": [
      {"measurement": "IC50", "setting": "value given as range class", "value": "0.6 to 10", "unit": "nM"}
    ]},
    {"compound": "Cc1c(COc2cc(OCc3cccc(C#N)c3)c(CNC[C@@H](O)CC(=O)O)cc2Br)cccc1-c1ccc2c(c1)OCCO2", "note": "[Example 1300, (S)-4-((5-bromo-2-((3-cyanobenzyl)oxy)-4-((3-(2,3-dihydrobenzo[b][1,4]dioxin-6-yl)-2-methylbenzyl)oxy)benzyl)amino)-3-hydroxybutanoic acid]", "values": [
      {"measurement": "IC50", "setting": "value given as range class", "value": "0.6 to 10", "unit": "nM"}
    ]},
    {"compound": "Cc1c(COc2cc(OCc3cccc(C#N)c3)c(CNCC(O)CN3CCOCC3)cc2Cl)cccc1-c1ccc2c(c1)OCCO2", "note": "(stereo not shown) [Example 1212, 3-((4-chloro-5-((3-(2,3-dihydrobenzo[b][1,4]dioxin-6-yl)-2-methylbenzyl)oxy)-2-(((2-hydroxy-3-morpholinopropyl)amino)methyl)phenoxy)methyl)benzonitrile]", "values": [
      {"measurement": "IC50", "setting": "value given as range class", "value": "0.6 to 10", "unit": "nM"}
    ]},
    {"compound": "Cc1c(COc2cc(OCc3cccc(C#N)c3)c(CN3CCc4nc[nH]c4C3C(=O)O)cc2Cl)cccc1-c1ccc2c(c1)OCCO2", "note": "(stereo not shown) [Example 1226, 5-(5-chloro-2-((3-cyanobenzyl)oxy)-4-((3-(2,3-dihydrobenzo[b][1,4]dioxin-6-yl)-2-methylbenzyl)oxy)benzyl)-4,5,6,7-tetrahydro-3H-imidazo[4,5-c]pyridine-4-carboxylic acid]", "values": [
      {"measurement": "IC50", "setting": "value given as range class", "value": "10 to 100", "unit": "nM"}
    ]},
    {"compound": "Cc1c(COc2cc(OCc3cncc(C#N)c3)c(CN3CCCC[C@H]3C(=O)O)cc2Br)cccc1-c1ccccc1", "note": "[Example 1298, (S)-1-(5-bromo-2-((5-cyanopyridin-3-yl)methoxy)-4-((2-methylbiphenyl-3-yl)methoxy)benzyl)piperidine-2-carboxylic acid]", "values": [
      {"measurement": "IC50", "setting": "value given as range class", "value": "0.6 to 10", "unit": "nM"}
    ]},
    {"compound": "Cc1cc(CN2CCCC[C@@H]2C(=O)O)c(OCc2cncc(C#N)c2)cc1OCc1cccc(-c2ccc3c(c2)OCCO3)c1C", "note": "[Example 1288, (R)-1-(2-((5-cyanopyridin-3-yl)methoxy)-4-(3-(2,3-dihydrobenzo[b][1,4]dioxin-6-yl)-2-methylbenzyloxy)-5-methylbenzyl)piperidine-2-carboxylic acid]", "values": [
      {"measurement": "IC50", "setting": "numeric value", "value": 1.88, "unit": "nM"}
    ]},
    {"compound": "Cc1c(COc2cc(OCc3cncc(C#N)c3)c(CNCCO)cc2Br)cccc1-c1ccc2c(c1)OCCO2", "note": "[Example 1322, 5-((4-bromo-5-(3-(2,3-dihydrobenzo[b][1,4]dioxin-6-yl)-2-methylbenzyloxy)-2-((2-hydroxyethylamino)methyl)phenoxy)methyl)nicotinonitrile]", "values": [
      {"measurement": "IC50", "setting": "value given as range class", "value": "0.6 to 10", "unit": "nM"}
    ]},
    {"compound": "CC(=O)NCCNCc1ccc(OCc2cccc(-c3ccccc3)c2C)cc1OCc1cc(F)cc(OC(F)(F)F)c1", "note": "[Example 1106, N-(2-((2-((3-fluoro-5-(trifluoromethoxy)benzyl)oxy)-4-((2-methyl-[1,1′-biphenyl]-3-yl)methoxy)benzyl)amino)ethyl)acetamide]", "values": [
      {"measurement": "IC50", "setting": "value given as range class", "value": "100 to 20000", "unit": "nM"}
    ]},
    {"compound": "Cc1c(COc2cc(OCc3cccc(C#N)c3)c(CN[C@@H](CCS(C)(=O)=O)C(=O)O)cc2Cl)cccc1-c1ccc2c(c1)OCCO2", "note": "[Example 1200, (S)-2-((5-chloro-2-((3-cyanobenzyl)oxy)-4-((3-(2,3-dihydrobenzo[b][1,4]dioxin-6-yl)-2-methylbenzyl)oxy)benzyl)amino)-4-(methylsulfonyl)butanoic acid]", "values": [
      {"measurement": "IC50", "setting": "value given as range class", "value": "10 to 100", "unit": "nM"}
    ]},
    {"compound": "CC(=O)NCCNCc1ccc(OCc2cccc(-c3ccccc3)c2C)cc1OCc1ccc2[nH]ncc2c1", "note": "[Example 1098, N-(2-((2-((1H-indazol-5-yl)methoxy)-4-((2-methyl-[1,1′-biphenyl]-3-yl)methoxy)benzyl)amino)ethyl)acetamide]", "values": [
      {"measurement": "IC50", "setting": "value given as range class", "value": "100 to 20000", "unit": "nM"}
    ]},
    {"compound": "CC(=O)NCCNCc1ccc(OCc2cccc(-c3ccccc3)c2C)cc1OCc1noc(C)n1", "note": "[Example 1104, N-(2-((2-((5-methyl-1,2,4-oxadiazol-3-yl)methoxy)-4-((2-methyl-[1,1′-biphenyl]-3-yl)methoxy)benzyl)amino)ethyl)acetamide]", "values": [
      {"measurement": "IC50", "setting": "value given as range class", "value": "100 to 20000", "unit": "nM"}
    ]},
    {"compound": "CC(=O)NCCNCc1ccc(OCc2cccc(-c3ccccc3)c2C)cc1OCc1ccc(F)cc1", "note": "[Example 1075, N-(2-((2-((4-fluorobenzyl)oxy)-4-((2-methyl-[1,1′-biphenyl]-3-yl)methoxy)benzyl)amino)ethyl)acetamide]", "values": [
      {"measurement": "IC50", "setting": "value given as range class", "value": "100 to 20000", "unit": "nM"}
    ]},
    {"compound": "Cc1cc(OCc2cccc(-c3ccc4c(c3)OCCO4)c2C)cc(OCc2cncc(C#N)c2)c1CN[C@](C)(CO)C(=O)O", "note": "[Example 1008, (R)-2-(2-((5-cyanopyridin-3-yl)methoxy)-4-(3-(2,3-dihydrobenzo[b][1,4]dioxin-6-yl)-2-methylbenzyloxy)-6-methylbenzylamino)-3-hydroxy-2-methylpropanoic acid]", "values": [
      {"measurement": "IC50", "setting": "value given as range class", "value": "0.6 to 10", "unit": "nM"}
    ]},
    {"compound": "Cc1c(COc2cc(OCc3cncc(C#N)c3)c(CN[C@@H](CCCN)C(=O)O)cc2Cl)cccc1-c1ccc2c(c1)OCCO2", "note": "[Example 2003, (S)-5-amino-2-((5-chloro-2-((5-cyanopyridin-3-yl)methoxy)-4-((3-(2,3-dihydrobenzo[b][1,4]dioxin-6-yl)-2-methylbenzyl)oxy)benzyl)amino)pentanoic acid]", "values": [
      {"measurement": "IC50", "setting": "value given as range class", "value": "0.6 to 10", "unit": "nM"}
    ]},
    {"compound": "Cc1cc(CN[C@@](C)(CO)C(=O)O)c(OCc2cccc(C#N)c2)cc1OCc1cccc(-c2ccc3c(c2)OCCO3)c1C", "note": "[Example 1267, (S)-2-((2-((3-cyanobenzyl)oxy)-4-((3-(2,3-dihydrobenzo[b][1,4]dioxin-6-yl)-2-methylbenzyl)oxy)-5-methylbenzyl)amino)-3-hydroxy-2-methylpropanoic acid]", "values": [
      {"measurement": "IC50", "setting": "value given as range class", "value": "0.6 to 10", "unit": "nM"}
    ]},
    {"compound": "CC(=O)NCCNCc1ccc(OCc2cccc(-c3ccccc3)c2C)cc1OCc1cc(F)cc(C(F)(F)F)c1", "note": "[Example 1081, N-(2-((2-((3-fluoro-5-(trifluoromethyl)benzyl)oxy)-4-((2-methyl-[1,1′-biphenyl]-3-yl)methoxy)benzyl)amino)ethyl)acetamide]", "values": [
      {"measurement": "IC50", "setting": "value given as range class", "value": "100 to 20000", "unit": "nM"}
    ]},
    {"compound": "CC(=O)NCCNCc1ccc(OCc2cccc(-c3ccccc3)c2C)cc1OCc1ccccc1C#N", "note": "[Example 1055, N-(2-((2-((2-cyanobenzyl)oxy)-4-((2-methyl-[1,1′-biphenyl]-3-yl)methoxy)benzyl)amino)ethyl)acetamide]", "values": [
      {"measurement": "IC50", "setting": "value given as range class", "value": "100 to 20000", "unit": "nM"}
    ]},
    {"compound": "Cc1c(COc2ccc(CN3CCCC[C@H]3C(=O)O)c(OCc3cc(C#N)ccn3)c2)cccc1-c1ccc2c(c1)OCCO2", "note": "[Example 1132, (S)-1-(2-((4-cyanopyridin-2-yl)methoxy)-4-(3-(2,3-dihydrobenzo[b][1,4]dioxin-6-yl)-2-methylbenzyloxy)benzyl)piperidine-2-carboxylic acid]", "values": [
      {"measurement": "IC50", "setting": "value given as range class", "value": "10 to 100", "unit": "nM"}
    ]},
    {"compound": "CC(=O)NCCNCc1ccc(OCc2cccc(-c3ccccc3)c2C)cc1OCc1cccc(F)c1", "note": "[Example 1050, N-(2-((2-((3-fluorobenzyl)oxy)-4-((2-methyl-[1,1′-biphenyl]-3-yl)methoxy)benzyl)amino)ethyl)acetamide]", "values": [
      {"measurement": "IC50", "setting": "value given as range class", "value": "100 to 20000", "unit": "nM"}
    ]},
    {"compound": "Cc1c(COc2cc(OCc3cccc(C#N)c3)c(CN[C@@H](CC(=O)O)C(=O)O)cc2Cl)cccc1-c1ccc2c(c1)OCCO2", "note": "[Example 1158, (S)-2-((5-chloro-2-((3-cyanobenzyl)oxy)-4-((3-(2,3-dihydrobenzo[b][1,4]dioxin-6-yl)-2-methylbenzyl)oxy)benzyl)amino)succinic acid]", "values": [
      {"measurement": "IC50", "setting": "value given as range class", "value": "0.6 to 10", "unit": "nM"}
    ]},
    {"compound": "Cc1c(COc2cc(OCc3cccc(C#N)c3)c(CN(C)[C@@H](CO)C(=O)O)cc2Cl)cccc1-c1ccc2c(c1)OCCO2", "note": "[Example 1183, (S)-2-((5-chloro-2-((3-cyanobenzyl)oxy)-4-((3-(2,3-dihydrobenzo[b][1,4]dioxin-6-yl)-2-methylbenzyl)oxy)benzyl)(methyl)amino)-3-hydroxypropanoic acid]", "values": [
      {"measurement": "IC50", "setting": "value given as range class", "value": "0.6 to 10", "unit": "nM"}
    ]},
    {"compound": "CC(=O)NCCNCc1ccc(OCc2cccc(-c3ccccc3)c2C)cc1OC[C@@H]1CCC(=O)N1", "note": "[Example 1120, (S)—N-(2-((4-((2-methyl-[1,1′-biphenyl]-3-yl)methoxy)-2-((5-oxopyrrolidin-2-yl)methoxy)benzyl)amino)ethyl)acetamide]", "values": [
      {"measurement": "IC50", "setting": "value given as range class", "value": "10 to 100", "unit": "nM"}
    ]},
    {"compound": "CCOc1cc(OCc2cccc(-c3ccccc3)c2C)ccc1CNCCNC(C)=O", "note": "[Example 1044, N-(2-((2-ethoxy-4-((2-methyl-[1,1′-biphenyl]-3-yl)methoxy)benzyl)amino)ethyl)acetamide]", "values": [
      {"measurement": "IC50", "setting": "value given as range class", "value": "100 to 20000", "unit": "nM"}
    ]}
  ]
}
